Results from paper PMC6035881 (Antiviral Research, 2018).
Several values for one entry are separate records, joined by “and”; a condition that tells them apart may be missing. Identical values can stand only once.

Experiments:
[1] = system: RVFV (strain ZH501); set-up: species or system Syrian golden hamsters; details: hamster, in vivo
[2] = system: RVFV (strain ZH501); set-up: species or system Syrian golden hamsters; details: hamster, in vivo; remark: listed apart in the source
[3] = system: RVFV (strain ZH501); set-up: species or system Syrian golden hamsters; details: hamster, in vivo, ip
[4] = system: RVFV (MP-12 strain)
[5] = system: RVFV (MP-12 strain); remark: listed apart in the source
[6] = system: RVFV; details: cited from earlier work
[7] = system: more than 20 different viruses across eight different virus families; details: read-out: in vitro antiviral potency EC50; cited from earlier work
[8] = system: RVFV; details: in vivo; cited from earlier work
[9] = in vitro; details: African green monkey
[10] = hamster, in vivo, ip; cited from earlier work
[11] = system: RVFV (MP-12 strain); test: microbe, parasite or virus in culture; details: Rift Valley fever virus, Vero 76, 120 h, read-out: EC50 (CPE reduction assay)
[12] = system: RVFV (MP-12 strain); test: microbe, parasite or virus in culture; details: Rift Valley fever virus, Vero 76, read-out: EC90 (VYR)
[13] = system: RVFV; details: hamster, in vivo; cited from earlier work

With `Nc1ncnc2c([C@@H]3N[C@H](CO)[C@@H](O)[C@H]3O)c[nH]c12` [Galidesivir] the “RVFV in serum, spleen or brain on day 2 p.i.” value [1] was “undetectable”, the “animals with detectable viral load in the liver on day 2 p.i.” value [1] was “only a single animal” and the “animals surviving the lethal RVFV challenge” value [2] was 70%. The protection from mortality [2] was “up to 70%”, the “levels of virus across all tissues and serum, day 2 p.i.” value [3] was “undetectable” and the “SI (CC50/EC50)” value [4] was 5.2. The “SI (CC50/EC90)” value [5] was 7.6, the EC50 [6] was 41.6 µM and the EC90 [6] was 98 µM. The EC50 [7] was less than 50 µM, the “protection in mouse model of RVFV infection” value [8] was “partial protection” and the CC50 [9] was 280 µg/mL and 106 µM. For the same compound, the maximum tolerated dose [10] was 200 mg/kg/day, the EC50 [11] was 54 µg/mL and 20.4 µM and the EC90 [12] was 37 µg/mL and 13.9 µM.
In the case of `NC(=O)c1nc(F)c[nH]c1=O` [favipiravir], the “hamsters protected from lethal RVFV challenge” value [13] is given as 70–80%.
In the case of `NC(=O)c1ncn([C@@H]2O[C@H](CO)[C@@H](O)[C@H]2O)n1` [Ribavirin, reference compound], the “virus in day 2 serum and tissue samples” value [1] is reported as “devoid of virus” and the survival [2] is reported as 30%.
